Results published in PubChem BioAssay (NCI).
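Tested at 5 concentrations; 48 h exposure; 96-well plates; endpoints linearly interpolated, else capped at highest concentration. GI50: concentration for 50% inhibition of growth. Definition used: TGI = concentration required for complete inhibition of growth.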

Tests used:
Assay in all cases: NCI tumour cell line growth inhibition, 48 h
[1] = tested on: SW-620 colon
[2] = tested on: NCI-H23 lung
[3] = tested on: NCI-H226 lung
[4] = tested on: HOP-62 NSCLC
[5] = tested on: A498 renal
[6] = tested on: HOP-92 NSCLC
[7] = tested on: UO-31 renal
[8] = tested on: SK-MEL-28 melanoma
[9] = tested on: ACHN renal
[10] = tested on: CCRF-CEM leukemia
[11] = tested on: CAKI-1 renal
[12] = tested on: IGROV1 ovarian
[13] = tested on: OVCAR-5 ovarian
[14] = tested on: HCT-15 colon
[15] = tested on: TK-10 renal
[16] = tested on: A549 NSCLC
[17] = tested on: RXF 393 renal
[18] = tested on: HT29 colon
[19] = tested on: EKVX NSCLC
[20] = tested on: MDA-MB-435
[21] = tested on: HS 578T breast
[22] = tested on: MDA-MB-231 breast
[23] = tested on: NCI-H460 lung
[24] = tested on: SK-MEL-5 melanoma
[25] = tested on: PC-3 prostate
[26] = tested on: SNB-75 CNS
[27] = tested on: COLO 205 colon
[28] = tested on: UACC-62 melanoma
[29] = tested on: HL-60(TB) leukemia
[30] = tested on: T-47D breast
[31] = tested on: 786-0 renal
[32] = tested on: NCI/ADR-RES ovarian
[33] = tested on: BT-549 breast
[34] = tested on: OVCAR-8 ovarian
[35] = tested on: SK-MEL-2 melanoma
[36] = tested on: SNB-19 CNS
[37] = tested on: SF-295 CNS
[38] = tested on: LOX IMVI melanoma
[39] = tested on: UACC-257 melanoma
[40] = tested on: MCF7 breast
[41] = tested on: RPMI-8226 leukemia
[42] = tested on: U251 CNS
[43] = tested on: MOLT-4 leukemia
[44] = tested on: MALME-3M melanoma
[45] = tested on: SN12C renal
[46] = tested on: OVCAR-3 ovarian
[47] = tested on: SF-539 CNS
[48] = tested on: SF-268 CNS
[49] = tested on: DU-145 prostate
[50] = tested on: SK-OV-3 ovarian
[51] = tested on: HCC-2998 colon
[52] = tested on: OVCAR-4 ovarian
[53] = tested on: NCI-H522 lung
[54] = tested on: KM12 colon

For `CCCN1C/C(=C\c2ccc(O)c(OC)c2)C(=O)/C(=C/c2ccc(O)c(OC)c2)C1`, the GI50 [1] was over 100 µM, the TGI [1] was over 100 µM and the GI50 [2] was over 100 µM. It also gave a TGI [2] of over 100 µM, a GI50 [3] of over 100 µM and a TGI [3] of over 100 µM. The GI50 [4] was over 100 µM, the TGI [4] was over 100 µM and the GI50 [5] was over 100 µM. It also gave a TGI [5] of over 100 µM, a GI50 [6] of over 100 µM and a TGI [6] of over 100 µM. It also gave a GI50 [7] of over 100 µM, a TGI [7] of over 100 µM and a GI50 [8] of over 100 µM. For the same compound, the TGI [8] was over 100 µM, the GI50 [9] was over 100 µM and the TGI [9] was over 100 µM. The GI50 [10] was over 100 µM, the TGI [10] was over 100 µM and the GI50 [11] was over 100 µM. The TGI [11] was over 100 µM, the GI50 [12] was over 100 µM and the TGI [12] was over 100 µM. The GI50 [13] was over 100 µM, the TGI [13] was over 100 µM and the GI50 [14] was over 100 µM. It also gave a TGI [14] of over 100 µM, a GI50 [15] of over 100 µM and a TGI [15] of over 100 µM. The GI50 [16] was over 100 µM, the TGI [16] was over 100 µM and the GI50 [17] was over 100 µM. It also gave a TGI [17] of over 100 µM, a GI50 [18] of over 100 µM and a TGI [18] of over 100 µM. The GI50 [19] was over 100 µM, the TGI [19] was over 100 µM and the GI50 [20] was over 100 µM. It also gave a TGI [20] of over 100 µM, a GI50 [21] of over 100 µM and a TGI [21] of over 100 µM. The GI50 [22] was over 100 µM, the TGI [22] was over 100 µM and the GI50 [23] was over 100 µM. For the same compound, the TGI [23] was over 100 µM, the GI50 [24] was over 100 µM and the TGI [24] was over 100 µM. The GI50 [25] was over 100 µM, the TGI [25] was over 100 µM and the GI50 [26] was over 100 µM. The TGI [26] was over 100 µM, the GI50 [27] was over 100 µM and the TGI [27] was over 100 µM. The GI50 [28] was over 100 µM, the TGI [28] was over 100 µM and the GI50 [29] was over 100 µM. For the same compound, the TGI [29] was over 100 µM, the GI50 [30] was over 100 µM and the TGI [30] was over 100 µM. The GI50 [31] was over 100 µM, the TGI [31] was over 100 µM and the GI50 [32] was over 100 µM. For the same compound, the TGI [32] was over 100 µM, the GI50 [33] was over 100 µM and the TGI [33] was over 100 µM. The GI50 [34] was over 100 µM, the TGI [34] was over 100 µM and the GI50 [35] was over 100 µM. For the same compound, the TGI [35] was over 100 µM, the GI50 [36] was over 100 µM and the TGI [36] was over 100 µM. It also gave a GI50 [37] of over 100 µM, a TGI [37] of over 100 µM and a GI50 [38] of over 100 µM. The TGI [38] was over 100 µM, the GI50 [39] was over 100 µM and the TGI [39] was over 100 µM. The GI50 [40] was over 100 µM, the TGI [40] was over 100 µM and the GI50 [41] was over 100 µM. The TGI [41] was over 100 µM, the GI50 [42] was over 100 µM and the TGI [42] was over 100 µM. For the same compound, the GI50 [43] was over 100 µM, the TGI [43] was over 100 µM and the GI50 [44] was over 100 µM. For the same compound, the TGI [44] was over 100 µM, the GI50 [45] was over 100 µM and the TGI [45] was over 100 µM. It also gave a GI50 [46] of over 100 µM, a TGI [46] of over 100 µM and a GI50 [47] of over 100 µM. It also gave a TGI [47] of over 100 µM, a GI50 [48] of over 100 µM and a TGI [48] of over 100 µM. The GI50 [49] was over 100 µM, the TGI [49] was over 100 µM and the GI50 [50] was over 100 µM. For the same compound, the TGI [50] was over 100 µM, the GI50 [51] was over 100 µM and the TGI [51] was over 100 µM. It also gave a GI50 [52] of over 100 µM, a TGI [52] of over 100 µM and a GI50 [53] of over 100 µM. For the same compound, the TGI [53] was over 100 µM, the GI50 [54] was over 100 µM and the TGI [54] was over 100 µM.
